Assay results: the NIST ThermoML archive (doi:10.1016/j.fluid.2014.11.020)
± gives the expanded uncertainty stated by the source.

Assay: activity coefficient (dimensionless); of the first substance listed, at infinite dilution; xn = mol fraction of the nth substance listed
Conditions: Liquid, Chromatography, x1 = 0

Compound	activity coefficient (323.15 K)	activity coefficient (333.15 K)	activity coefficient (343.15 K)
Cc1ccccc1C [1,2-dimethylbenzene] + CN(C)c1cc[n+](COCCCOC[n+]2ccc(N(C)C)cc2)cc1.O=S(=O)([N-]S(=O)(=O)C(F)(F)F)C(F)(F)F.O=S(=O)([N-]S(=O)(=O)C(F)(F)F)C(F)(F)F	1.18 ± 0.08	1.2 ± 0.08	1.22 ± 0.08
CCC(C)=O [butanone] + CCCCCCCCn1cc[n+](COCCC)c1C.N#C[N-]C#N	0.7 ± 0.05	0.64 ± 0.04	0.55 ± 0.04
CC1CCCC1 [methylcyclopentane] + CCCOC[n+]1ccn(Cc2ccccc2)c1.O=S(=O)([N-]S(=O)(=O)C(F)(F)F)C(F)(F)F	5.48 ± 0.37	4.46 ± 0.3	4.02 ± 0.27
ClC(Cl)(Cl)Cl [tetrachloromethane] + CCCOC[n+]1ccn(Cc2ccccc2)c1.N#C[N-]C#N	2.5 ± 0.17	2.58 ± 0.18	2.67 ± 0.18
C#CCCCC [1-hexyne] + Cn1cc[n+](COCCCOC[n+]2ccn(C)c2)c1.N#C[N-]C#N.N#C[N-]C#N	15.8 ± 1.1	15.2 ± 1	14.6 ± 1
CCCCCCCCCC [decane] + CCCOC[n+]1ccc(N(C)C)cc1.O=S(=O)([N-]S(=O)(=O)C(F)(F)F)C(F)(F)F	41.1 ± 2.8	38.5 ± 2.6	34.5 ± 2.4
CCCO [propan-1-ol] + CCCOC[n+]1ccn(C)c1.N#C[N-]C#N	0.97 ± 0.06	0.95 ± 0.06	0.92 ± 0.06
Cc1ccc(C)cc1 [1,4-dimethylbenzene] + CN(C)c1cc[n+](COCCCOC[n+]2ccc(N(C)C)cc2)cc1.O=S(=O)([N-]S(=O)(=O)C(F)(F)F)C(F)(F)F.O=S(=O)([N-]S(=O)(=O)C(F)(F)F)C(F)(F)F	1.34 ± 0.09	1.36 ± 0.09	1.37 ± 0.09
CC#N [acetonitrile] + CCCOC[n+]1ccn(C)c1.F[B-](F)(F)F	0.73 ± 0.05	0.74 ± 0.05	0.75 ± 0.05
CCCO [propan-1-ol] + N#C[N-]C#N.N#C[N-]C#N.c1ccc(Cn2cc[n+](COCCCOC[n+]3ccn(Cc4ccccc4)c3)c2)cc1	1.24 ± 0.08	1.2 ± 0.08	1.14 ± 0.07
C[N+](=O)[O-] [nitromethane] + CCCOC[n+]1ccn(Cc2ccccc2)c1.F[B-](F)(F)F	0.58 ± 0.04	0.57 ± 0.04	0.58 ± 0.04
C1CCCCCC1 [cycloheptane] + CCCOC[n+]1ccn(Cc2ccccc2)c1.N#C[N-]C#N	35.8 ± 2.5	47.2 ± 3.2	56.3 ± 3.9
Cc1ccccc1 [toluene] + CCCOC[n+]1ccn(C)c1.N#C[N-]C#N	3.6 ± 0.25	3.65 ± 0.25	3.77 ± 0.26
CCC(=O)CC [pentan-3-one] + CCCOC[n+]1ccn(C)c1.N#C[N-]C#N	2.14 ± 0.15	2.19 ± 0.15	2.29 ± 0.16
CCC(C)=O [butanone] + CCCOC[n+]1ccn(C)c1.F[B-](F)(F)F	1.73 ± 0.12	1.6 ± 0.11	1.49 ± 0.1
ClC(Cl)Cl [trichloromethane] + CCCOC[n+]1ccn(Cc2ccccc2)c1.F[B-](F)(F)F	1.16 ± 0.07	1.15 ± 0.07	1.2 ± 0.08
CCc1ccccc1 [ethylbenzene] + CCCOC[n+]1ccc(N(C)C)cc1.O=S(=O)([N-]S(=O)(=O)C(F)(F)F)C(F)(F)F	1.45 ± 0.1	1.53 ± 0.1	1.53 ± 0.1
CCC(C)CC [3-methylpentane] + CCCOC[n+]1ccn(C)c1.O=S(=O)([N-]S(=O)(=O)C(F)(F)F)C(F)(F)F	14.4 ± 0.98	10.8 ± 0.74	
CCOCC [diethyl ether] + CCCOC[n+]1ccn(C)c1.O=S(=O)([N-]S(=O)(=O)C(F)(F)F)C(F)(F)F	2.21 ± 0.15	2.23 ± 0.15	
CCCCCCCCC [nonane] + CCCOC[n+]1ccn(C)c1.N#C[N-]C#N	263 ± 18	234 ± 16	197 ± 14
CCCCO [butan-1-ol] + CCCOC[n+]1ccn(Cc2ccccc2)c1.N#C[N-]C#N	0.93 ± 0.06	0.88 ± 0.06	0.82 ± 0.05
C#CCCCCC [1-heptyne] + CCCOC[n+]1ccn(Cc2ccccc2)c1.F[B-](F)(F)F	8.53 ± 0.58	8.35 ± 0.57	8.28 ± 0.56
CCCO [propan-1-ol] + CCCOC[n+]1ccn(C)c1.O=S(=O)([N-]S(=O)(=O)C(F)(F)F)C(F)(F)F	1.86 ± 0.13	1.66 ± 0.11	1.5 ± 0.1
CCc1ccccc1 [ethylbenzene] + CCCCCCCCn1cc[n+](COCCC)c1C.N#C[N-]C#N	1.48 ± 0.1	1.5 ± 0.1	1.54 ± 0.1

Compound	activity coefficient (323.15 K)	activity coefficient (333.15 K)	activity coefficient (343.15 K)
Cc1ccc(C)cc1 [1,4-dimethylbenzene] + CCCOC[n+]1ccn(Cc2ccccc2)c1.F[B-](F)(F)F	5.12 ± 0.35	4.85 ± 0.33	4.88 ± 0.33
Cc1ccccc1C [1,2-dimethylbenzene] + CCCCCCCCn1cc[n+](COCCC)c1C.N#C[N-]C#N	1.33 ± 0.09	1.33 ± 0.09	1.33 ± 0.09
CC(C)O [propan-2-ol] + CCCOC[n+]1ccn(C)c1.N#C[N-]C#N	1.1 ± 0.07	1.07 ± 0.07	1.04 ± 0.07
CC1CCCCC1 [methylcyclohexane] + CCCOC[n+]1ccn(Cc2ccccc2)c1.N#C[N-]C#N	21.3 ± 1.5	20.4 ± 1.4	18.2 ± 1.2
Cc1ccc(C)cc1 [1,4-dimethylbenzene] + CCCOC[n+]1ccn(Cc2ccccc2)c1.N#C[N-]C#N	3.66 ± 0.25	3.56 ± 0.24	3.46 ± 0.24
CCc1ccccc1 [ethylbenzene] + CCCCCCCCn1cc[n+](COCCCOC[n+]2ccn(CCCCCCCC)c2C)c1C.O=S(=O)([N-]S(=O)(=O)C(F)(F)F)C(F)(F)F.O=S(=O)([N-]S(=O)(=O)C(F)(F)F)C(F)(F)F	0.75 ± 0.05	0.73 ± 0.05	0.74 ± 0.05
c1ccccc1 [benzene] + CCCCCCCCn1cc[n+](COCCC)c1C.N#C[N-]C#N	1.39 ± 0.09	1.23 ± 0.08	1.07 ± 0.07
CCCCCCCCC [nonane] + CN(C)c1cc[n+](COCCCOC[n+]2ccc(N(C)C)cc2)cc1.O=S(=O)([N-]S(=O)(=O)C(F)(F)F)C(F)(F)F.O=S(=O)([N-]S(=O)(=O)C(F)(F)F)C(F)(F)F	60.7 ± 4.2	52 ± 3.6	47.2 ± 3.2
CCCCCC [hexane] + CCCOC[n+]1ccn(Cc2ccccc2)c1.O=S(=O)([N-]S(=O)(=O)C(F)(F)F)C(F)(F)F	7.52 ± 0.51	7.21 ± 0.49	6.92 ± 0.47
CC(C)CO [2-methyl-1-propanol] + Cn1cc[n+](COCCCOC[n+]2ccn(C)c2)c1.N#C[N-]C#N.N#C[N-]C#N	1.94 ± 0.13	1.81 ± 0.12	1.73 ± 0.12
CCCCCCCCCCCC [dodecane] + Cn1cc[n+](COCCCOC[n+]2ccn(C)c2)c1.N#C[N-]C#N.N#C[N-]C#N	1150 ± 79	962 ± 66	932 ± 64
CCc1ccccc1 [ethylbenzene] + Cn1cc[n+](COCCCOC[n+]2ccn(C)c2)c1.N#C[N-]C#N.N#C[N-]C#N	11.2 ± 0.77	10.9 ± 0.75	10.7 ± 0.73
CC#N [acetonitrile] + CCCOC[n+]1ccn(Cc2ccccc2)c1.O=S(=O)([N-]S(=O)(=O)C(F)(F)F)C(F)(F)F	0.39 ± 0.03	0.34 ± 0.03	0.34 ± 0.03
C=CCCCC [hex-1-ene] + CCCCCCCCn1cc[n+](COCCC)c1C.N#C[N-]C#N	4.34 ± 0.3	4.37 ± 0.3	3.94 ± 0.27
ClCCl [dichloromethane] + Cn1cc[n+](COCCCOC[n+]2ccn(C)c2)c1.N#C[N-]C#N.N#C[N-]C#N	0.73 ± 0.05	0.8 ± 0.05	0.86 ± 0.06
C1CCCCCC1 [cycloheptane] + CCCOC[n+]1ccn(C)c1.F[B-](F)(F)F	153 ± 11	240 ± 16	245 ± 17
CCC(=O)CC [pentan-3-one] + CCCOC[n+]1ccn(Cc2ccccc2)c1.O=S(=O)([N-]S(=O)(=O)C(F)(F)F)C(F)(F)F	0.43 ± 0.04	0.43 ± 0.04	0.44 ± 0.04
CCN(CC)CC [triethylamine] + CCCOC[n+]1ccn(C)c1.N#C[N-]C#N	10.3 ± 0.7	15.7 ± 1.1	24.8 ± 1.7
C#CCCCCC [1-heptyne] + CCCOC[n+]1ccc(N(C)C)cc1.O=S(=O)([N-]S(=O)(=O)C(F)(F)F)C(F)(F)F	3.33 ± 0.23	3.35 ± 0.23	3.34 ± 0.23
CCO [ethanol] + CCCOC[n+]1ccn(C)c1.N#C[N-]C#N	0.74 ± 0.05	0.73 ± 0.05	0.71 ± 0.05
CCCCCCCCCC [decane] + CCCOC[n+]1ccn(Cc2ccccc2)c1.F[B-](F)(F)F	244 ± 17	220 ± 15	178 ± 12
C#CCCCC [1-hexyne] + CCCOC[n+]1ccn(Cc2ccccc2)c1.N#C[N-]C#N	4.41 ± 0.3	4.29 ± 0.29	
CCCCCCC [heptane] + CCCCCCCCn1cc[n+](COCCCOC[n+]2ccn(CCCCCCCC)c2C)c1C.O=S(=O)([N-]S(=O)(=O)C(F)(F)F)C(F)(F)F.O=S(=O)([N-]S(=O)(=O)C(F)(F)F)C(F)(F)F	4.67 ± 0.32	4.51 ± 0.31	4.49 ± 0.31
CC(C)OC(C)C [diisopropyl ether] + CCCOC[n+]1ccn(C)c1.F[B-](F)(F)F	32.7 ± 2.2	28.5 ± 1.9	26.4 ± 1.8
